Reference: EPA's ToxValDB 9.5 (doi:10.2903/j.efsa.2017.4988)
In brackets after ≈: the same amount, converted by molar mass.

Assays:
[1] = system: Rattus norvegicus; conditions: for LD50: acute, mortality
[2] = system: Anas platyrhynchos; conditions: acute; oral; unspecified; mortality
[3] = system: Anomia sp.; conditions: acute; duration: 96 hours; mortality
[4] = system: Apis mellifera; conditions: acute, mortality
[5] = system: Canidae; conditions: oral, Dog Other
[6] = system: Colinus virginianus
[7] = system: Cyprinodon variegatus; conditions: acute; duration: 96 hours; mortality
[8] = system: Daphnia magna; conditions: chronic/long-term; duration: 21 days
[9] = system: Gammaridae; conditions: chronic/long-term; duration: 28 days
[10] = system: Hypoaspis aculeifer; conditions: chronic/long-term; duration: 14 days; reproduction
[11] = system: Oncorhynchus mykiss; conditions: chronic/long-term; duration: 89 days; mortality
[12] = system: Tagia sp.
[13] = system: Aphidius rhopalosiphi; test: LR50; higher = less toxic; conditions: not reported; mortality

Row | SMILES | LD50 [1] [mg/kg] | LD50 [2] [mg/kg] | LC50 [3] [ng/mL] | LD50 ([4]; dermal) [µg/piece] | LD50 ([4]; oral, unspecified) [µg/piece] | NOAEL ([5]; chronic, duration: 1 years) [mg/kg-day] | NOAEL ([5]; subchronic, duration: 90 days) [mg/kg-day] | LC50 ([6]; acute, oral, diet, mortality) [mg/kg-day] | NOEC ([6]; chronic) [mg/kg-day] | LC50 [7] [mg/L] | NOEC [8] [mg/L] | NOEC [9] [mg/kg] | NOEC [10] [mg/kg] | NOEC [11] [mg/L] | LD50 ([1]; oral) [mg/kg] | NOAEL ([1]; chronic, duration: 2 years) [mg/kg-day] | NOAEL ([1]; reproduction developmental, organ weight) [mg/kg-day] | LC50 ([12]; acute, duration: 14 days, mortality) [mg/kg] | NOEC ([12]; chronic/long-term, duration: 56 days, reproduction) [mg/kg] | LR50 [13] [g/ha]
1 | CCOc1cc(C(C)(C)C)ccc1C(N)COC(=O)c1c(F)cccc1F (stereo not given) | > 5000 |  |  |  |  |  |  |  |  |  |  |  |  |  |  |  |  |  |  | 
2 | CCOc1cc(C(C)(C)C)ccc1C1COC(c2c(F)cccc2F)=N1 (stereo not given) [Etoxazole] |  | > 2000 | 4.3 (≈ 0.012 µM) | > 200 | > 200 | 5 | 5 | 1270 | 28.6 | > 0.16 | 0.00013 | 0.86 | 0.2 | 0.015 | > 5000 | 4 | 24.5 | > 1000 | 5 | > 55
